Test results published in patent US20240024403A1, “Compositions and Methods for Managing Weight” (Unigen, Inc., priority 2012, published 2024).

Assay: High fat diet induced obesity (DIO) mouse model
Type: in vivo, C57CL/6J mice
Parameters: Epididymal Fat weight / Retroperitoneal Fat weight / Total Fat (sum of the three fat deposits) / Retroperitoneal Fat / Total Fat / Epididymal Fat, absolute weight / Retroperitoneal Fat, absolute weight: unit not given here
Details: DIO mice; for FER (Food efficiency ratio): FER = body weight gain/food intake; for Hepatocellular ballooning (0-2) / Lobular Inflammation (0-3) / NSAH (sum) / Steatosis (0-3): liver pathology score; for Total Fat: sum of the three fat pads
Experimental: C57CL/6J mice aged 4-6 weeks (Korea Research Institute of Bioscience & Biotechnology, Ohchang, Korea) were housed in Polycarbonate cages (five mice per cage) in a room with a 12 hr:12 hr light-dark cycle and an ambient temperature of 24° C. All the mice were fed a commercial chow diet for 1 week after arrival in the animal facility. Mice were then divided into normal and obesity groups and fed with normal diet (ND) and high fat diets (HFD) respectively. The HFD group was divided into multiple treatment groups: a high fat diet vehicle group (HFD), an orlistat (purchased as OTC drug Alli®) positive control treatment group (ORI, 40 mg/kg of animal weight, 2 times/day) and optionally a sibutramine positive control treatment group (10 mg/kg, 1 time/day). The HFD contained 340 g of fat/kg of HFD (310 g lard plus 30 g soybean oil; Harlan Laboratories, USA). The HFD was formulated to provide 60% of the total energy generated by the diet from fat by replacing carbohydrate energy with lard and soybean oil, whereas the normal diet (ND) group was fed a diet providing only 18% of the total diet energy from fat(Harlan Laboratories, USA).
Body weight was measured once each week and feed intake was measured twice per week. At the end of the experimental period, following a 12 hr. fasting period, the animals were anesthetized with ether, and blood was drawn from the abdominal vein. Liver and kidney and adipose tissues (epididymal, retroperitoneal, perirenal adipose tissues) were removed from each animal, rinsed with physiological saline, and weighed. Serum concentrations of glucose, total cholesterol, triglycerides, and LDL-cholesterol were determined using automatic analyzer (INTEGRA 400, Roche, Germany). Statistical significance of test results was measured using the Student's t-test.

[1] = SIB 10 mg/kg, ORI 40 mg/kg, Mutamba extract 32 (G1) 1000 mg/kg, mean
[2] = SIB 10 mg/kg, ORI 40 mg/kg, Mutamba extract 33-2 G1 1000 mg/kg, mean
[3] = combination (1:1) 2000 mg/kg twice a day, group mean
[4] = combination (5:1) 1200 mg/kg twice a day by gavage, group mean
[5] = combination (5:1) 1200 mg/kg twice a day, biochemistry parameters, Table 85, first print
[6] = combination (5:1) 1200 mg/kg twice a day, biochemistry parameters, Table 85, second print
[7] = combination (10:1) 1100 mg/kg twice a day, biochemistry parameter
[8] = combination (10:1) 1100 mg/kg twice a day, group mean
[9] = plasma, Mean, G1 1,300 mg/kg twice a day

CCCCCCCCCCC[C@@H](C[C@@H]1OC(=O)[C@H]1CCCCCC)OC(=O)[C@H](CC(C)C)NC=O [ORI, orlistat]
Glu (ORI group, mean, Table 137): 194.00 mg/dL
HDL-C (ORI group, mean, Table 137): 62.42 mg/dL
LDL-C (ORI group, mean, Table 137): 4.03 mg/dL
T-chol (ORI group, mean, Table 137): 137.33 mg/dL
TG (ORI group, mean, Table 137): 27.83 mg/dL
Epididymal Fat, absolute weight (ORI group, mean, Table 138): 2.08
Liver, absolute organ weight (ORI group, mean, Table 138): 0.99 g
Perirenal Fat, absolute weight (ORI group, mean, Table 138): 0.28
Retroperitoneal Fat, absolute weight (ORI group, mean, Table 138): 0.57
Total Fat (sum of the three fat pads) (ORI group, mean, Table 138): 2.94
Average Body Weight Gain [1]: 0.038 g/day
Average Food Intake [1]: 2.826 g/day
Body Weight Gain [2]: 0.093 g/day
Food Intake [2]: 2.769 g/day
FER (Food efficiency ratio) (combination (1:1) 2000 mg/kg twice a day): 0.000
Food Intake [3]: 3.961 g/day
Weight Gain [3]: -0.002 g/day
FER (Food efficiency ratio) (combination (5:1) 1200 mg/kg twice a day by gavage): 0.000
Food Intake [4]: 3.961 g/day
Weight Gain [4]: -0.002 g/day
Glu [5]: 225.50 mg/dL
LDL-C [5]: 3.30 mg/dL
T-chol [5]: 134.00 mg/dL
TG [5]: 62.50 mg/dL
Glu [6]: 225.50 mg/dL
LDL-C [6]: 3.30 mg/dL
T-chol [6]: 134.00 mg/dL
TG [6]: 62.50 mg/dL
FER (Food efficiency ratio) (combination (10:1) 1100 mg/kg twice a day): 0.000
Glu [7]: 225.50 mg/dL
T-chol [7]: 134.00 mg/dL
TG [7]: 62.50 mg/dL
Food Intake [8]: 3.961 g/day
Weight Gain [8]: -0.002 g/day
Hepatocellular ballooning (0-2) (ORI group, mean, Table 139): 0.67
Lobular Inflammation (0-3) (ORI group, mean, Table 139): 1.33
NSAH (sum) (ORI group, mean, Table 139): 2.67
Steatosis (0-3) (ORI group, mean, Table 139): 0.67
Hepatocellular ballooning (0-2) (mean, Table 133): 0.33
Lobular Inflammation (0-3) (mean, Table 133): 1.50
NSAH (sum) (mean, Table 133): 2.17
Steatosis (0-3) (mean, Table 133): 0.33
Glu [9]: 269.17 mg/dL
T-chol [9]: 156 mg/dL
TG [9]: 88.3 mg/dL
Absolute Organ Weight, Total Fat (sum of the three fat pads (epididymal, retroperitoneal, perirenal), in g (unit assumed)): 2.952
Total Fat (G1 = 800 mg/kg orally twice a day): 2.82
Total Fat (G1 = 1,100 mg/kg orally twice a day): 2.82
Total Fat (G1 = 1,200 mg/kg orally twice a day): 2.82
Total Weight (week 0, G1 = 800 mg/kg orally twice a day, in g (unit assumed)): 40.22
Total Weight (week 0, G1 = 1,100 mg/kg orally twice a day, in g (unit assumed)): 40.22
Total Body Weight (week 0, G1 = 1,200 mg/kg orally twice a day, in g (unit assumed)): 40.22
Total Weight (week 0, ORI group, mean, Table 134, in g (unit assumed)): 38.61
Total Body Weight (week 0, ORI group, mean, Table 145, in g (unit assumed)): 40.22
Weight Gain (week 1, G1 = 800 mg/kg orally twice a day): −2.24
Total Weight (week 1, G1 = 800 mg/kg orally twice a day, in g (unit assumed)): 37.98
Weight Gain (week 1, G1 = 1,100 mg/kg orally twice a day): −2.24
Total Weight (week 1, G1 = 1,100 mg/kg orally twice a day, in g (unit assumed)): 37.98
Weight Gain (week 1, G1 = 1,200 mg/kg orally twice a day): −2.24
Total Body Weight (week 1, G1 = 1,200 mg/kg orally twice a day, in g (unit assumed)): 37.98
Total Weight (week 1, ORI group, mean, Table 134, in g (unit assumed)): 33.17
Weight Gain (week 1, ORI group, mean, Table 135): −5.43
Total Body Weight (week 1, ORI group, mean, Table 145, in g (unit assumed)): 37.98
Weight Gain (week 1, ORI group, mean, Table 146): −2.24
Weight Gain (week 2, G1 = 800 mg/kg orally twice a day): −6.14
